Counter-ions that a name gives are not always drawn.

These results are taken from US6710080B2, “Substituted 2-dialkylaminoalkylbiphenyl derivatives” (Gruenenthal GmbH, priority 1999, dated 2004).

Data set [1] relates to phenylquinone-induced writhing in mice. Briefly: Writhing test in mice. Format: in vivo. Particulars: Mus musculus, male NMRI mice; for inhibition at 10 mg/kg: 10 mg/kg intravenously 10 minutes before phenylquinone i.p., writhing counted 5-20 minutes after phenylquinone, read-out: % Inhibition of the writhing reaction with 10 mg/kg intravenously. The method, then:
The analgesic activity was investigated on phenylquinone-induced writhing in mice (modified by I. C. Hendershot, J. Forsaith, J. Pharmacol. Exp. Ther. 125, 237-240 (1959)). Male NMRI mice weighing 25-30 g were used for this. Groups of 10 animals per dose of substance received 0.3 ml/mouse of a 0.02% aqueous solution of phenylquinone (phenylbenzoquinone, Sigma, Deisenhofen; preparation of the solution with addition of 5% ethanol and storage in a water bath at 45° C.) as an intraperitoneal administration 10 minutes after intravenous administration of the test substances. The animals were placed individually in observation cages. The number of pain-induced extension movements (so-called writhing reactions=straightening of the body with stretching out of the hind extremities) 5-20 minutes after the administration of phenylquinone was counted by means of a push-button counter. Animals which receive only physiological saline solution were also run as a control. All the substances were tested in the standard dosage of 10 mg/kg. The percentage inhibition (% inhibition) of the writhing reaction by a substance was calculated in accordance with the following equation: [formula]
For some substances, the ED50 values with 95% confidence limits of the writhing reaction were calculated from the dose-dependent decrease in the writhing reactions compared with phenylquinone control groups investigated in parallel by means of regression analysis (evaluation program of Martens EDV Service, Eckental Germany).

As for `CC(=O)Nc1ccc(-c2ccccc2CN(C)C)cc1OC(F)(F)F.Cl` [Example 22, N-(2′-Dimethylaminomethyl-3-trifluoromethoxybiphenyl-4-yl)acetamide hydrochloride], the melting point worked out at 182 °C. The same molecule returned a median effective dose (ED50) in data set [1] (iv, intravenously, regression analysis of dose-dependent decrease in writhing reactions) of 6.05 mg/kg. Moreover, the inhibition at 10 mg/kg in data set [1] came to 76%.
Consider `CN(C)Cc1ccccc1-c1cc(Cl)c(N)c(Cl)c1` [Example 43, 3,5-Dichloro-2′-dimethylaminomethyl-biphenyl-4-ylamine hydrochloride], for which, in data set [1], the inhibition at 10 mg/kg turned out to be 99%.
